Among the data in patent US20100298377A1, “NOVEL SUBSTITUTED INDAZOLES, THE PREPARATION THEREOF AND USE OF SAME IN THERAPEUTICS” (SANOFI-AVENTIS, priority 2007, published 2010) are IC50 and melting point values, retold here.

In series [1] the test system is MIA PaCa-2 cells (human pancreatic carcinoma cells). The series can be described thus: Proliferation of MIA PaCa-2 cells, intracellular ATP, CellTiter-Glo test. In kind it is cell-based. Conditions: 96 hours. The source says: (§1) b. Study of the Proliferation of Human Tumoral MIA PaCa-2, C-433, LnCaP and MCF7 Cells via Assay of the Intracellular ATP Using the Celltiter-Glo™ Test
(§2) The kit CellTiter-Glo™ for measuring cell viability via luminescence ([…]) is a homogeneous method for determining the number of viable cells in culture, based on quantification of the ATP present in the cells, and which indicates the presence of metabolically active cells.
(§3) The cell lines used in this test were the following: MIA PaCa-2 cells (human pancreatic carcinoma cells, ATCC, CRL-1420), C-433 cells (human Ewing sarcoma cells, DSMZ, ACC 268), LNCaP clone FGC cells (human prostate carcinoma cells, ATCC, CRL-1740), MCF7 cells (human breast carcinoma cells, ECACC, #86012803). The cells MIAPaCa-2 and LNCaP were cultured in D-MEM culture medium (Invitrogen Gibco, #419656-039) containing 10% foetal calf serum (FCS, Invitrogen Gibco, #10500-064) and 2 mM L-Glutamine (Invitrogen Gibco, #25030-024); the C-433 cells were cultured in MCCoy's 5A culture medium (Invitrogen Gibco, #26600-023)/RPMI 1640 (Invitrogen Gibco, #31870-025) (50/50) containing 10% FCS and 2 mM L-glutamine; the MCF7 cells were cultured in EMEM culture medium (EMEM, Biowhittaker, Lonza, #BE12-662F) containing 10% FCS and 2 mM L-Glutamine.
(§4) Evaluation of the Cell Viability via Luminescence Measurement: Celltiter-Glo™ Test
(§5) On day 1, the cells were inoculated at 1000 (C-433), 2500 (MCF7) and 10000 (LNCaP and MIA PaCa-2) cells per well in black-bottomed 96-well microplates (NUNC fluoronunc, Fisherbioblock 2311K) in 135 μl of whole culture medium and incubated at 37° C., 5% CO2, for 3 to 6 hours. The cells were then incubated with increasing concentrations of molecules diluted in dimethyl sulfoxide (DMSO, Sigma D2650). The molecules were added in a volume of 15 μl of a 10-fold concentrated solution in a final volume of 150 μl, the final percentage of DMSO being 0.1%. The cells were incubated at 37° C., 5% CO2, for 96 hours. After 4 days of treatment with the molecules, the CellTiter-Glo™ was performed by following the manufacturer's instructions (Kit Celltiter-Glo Luminescent, PROMEGA #G7571). Briefly, the cell plates were equilibrated for about 30 minutes at RT and 100 μl per well of Celltiter-Glo reagent were added. The cells were incubated for 1 hour at RT for lysis of the cells and stabilization of the signal. The intracellular ATP was quantified by measuring the luminescence in rlu units (relative luminescence units), 96 hours after initiation of the treatment, using a luminescence counter (Wallac). The tests were performed in six replicates.
(§6) i) the mean±s.e.m. of each series of well replicates was calculated;
(§7) ii) the maximum response is given by positive control wells containing untreated cells; this control was performed in 12 replicates;
(§8) iii) the minimum response is given by cell-free and untreated negative control wells; this control was performed in 6 replicates;
(§9) iv) using these maximum (100%) and minimum (0%) response values, respectively, the data were normalized to give a percentage relative to the maximum response;
(§10) The IC50 values were calculated by […] with the XLfit software (IDBS, UK) using formula 205.
On the technique in general: Cellular ATP, detected with luciferase, serves as a proxy for viable cell number.

In series [2] the test system is LNCaP clone FGC cells (human prostate carcinoma cells). The series can be described thus: Proliferation of LNCaP cells, intracellular ATP, CellTiter-Glo test. Format: cell-based. Particulars: Homo sapiens, LNCaP-Clone-FGC, 96 hours.
Text: as §1, §2, §3, §4, §5, §6, §7, §8, §9, §10

Series [3] has as its system MCF7 cells (human breast carcinoma cells). Put plainly: Proliferation of MCF7 cells, intracellular ATP, CellTiter-Glo test. Particulars: Homo sapiens, MCF7, 96 hours. Format: cell-based.
Text: as §1, §2, §3, §4, §5, §6, §7, §8, §9, §10

In series [4] the test system is C-433 cells (human Ewing sarcoma cells). Put plainly: Proliferation of C-433 cells, intracellular ATP, CellTiter-Glo test. Format: cell-based. Conditions: Homo sapiens, 96 hours.
Text: as §1, §2, §3, §4, §5, §6, §7, §8, §9, §10

On to `CN1CCCCC1C(NC(=O)Nc1ccc2[nH]nc(-c3ccncc3)c2c1)c1ccccc1` [Ex 13, 1-[(1-Methylpiperid-2-yl)(phenyl)methyl]-3-(3-pyrid-4-yl-1H-indazol-5-yl)urea((S,2S),(R,2R))], for which, in series [1], inhibition was half-maximal at 1450 nM (IC50).
The same measure, in the same setting: the value for `CN1CCCCC1C(NC(=O)Nc1ccc2[nH]ncc2c1)c1cc(F)cc(Cl)c1` (stereo not drawn) [Ex 11, 1-[(3-Chloro-5-fluorophenyl)(1-methylpiperid-2-yl)methyl]-3-(1H-indazol-5-yl)urea] was greater than 10000 nM.
On to `O=C(Nc1ccc2[nH]ncc2c1)O[C@H](c1ccc(Cl)c(Cl)c1)[C@H]1CCCCN1` [Ex 37, (R)-(3,4-Dichlorophenyl)[(2R)-piperid-2-yl]methyl 1H-indazol-5-ylcarbamate], for which the IC50 in series [2] was found to be 2370 nM; in series [1], 2450 nM.
Compound `O=C(Nc1ccc2[nH]ncc2c1)NC(c1cc(F)cc(Cl)c1)C1CCCCN1` (stereo not drawn) [Ex 5, 1-[(3-Chloro-5-fluorophenyl)(piperid-2-yl)methyl]-3-(1H-indazol-5-yl)urea] gave a melting point of 185 °C. In addition, in series [3], it took 1420 nM to reach half-maximal inhibition (IC50). The compound further registered an IC50 in series [1] of 7100 nM.
In the case of `O=C(Nc1ccc2[nH]ncc2c1)O[C@@H](c1cccc(Br)c1)[C@@H]1CCCCN1` [Ex 46], the half-inhibitory concentration (IC50) came to 600 nM in series [2], 500 nM in series [4] and 1300 nM in series [3].
Take `Cc1n[nH]c2ccc(NC(=O)NC(c3ccccc3)C3CCCCN3C)cc12` [Ex 18, 3-Methyl-5-({[(1-methylpiperid-2-yl)(phenyl)methyl]carbamoyl}amino)-1H-indazole ((S,2S),(R,2R))]: the results for the IC50 in series [2], in series [3] and in series [1] were 1050 nM, 5800 nM and 6100 nM, respectively.
As to `CN1CCCCC1C(NC(=O)Nc1ccc2[nH]nc(C#Cc3ccc(F)cc3)c2c1)c1ccccc1` [Ex 24, 1-{3-[(4-Fluorophenyl)ethynyl]-1H-indazol-5-yl}-3-[(1-methylpiperid-2-yl)(phenyl)methyl]urea((S,2S),(R,2R))], half-maximal inhibition in series [1] (IC50) was put at 1300 nM.
For the compound `S=C(Nc1ccc2[nH]ncc2c1)N[C@@H](c1ccc(Cl)c(Cl)c1)[C@@H]1CCCCN1` [Ex 31, 1-{(S)-(3,4-Dichlorophenyl)[(2S)-piperid-2-yl]methyl}-3-(1H-indazol-5-yl)thiourea], the half-inhibitory concentration (IC50) in series [2] came out at 2940 nM; in series [3], 4450 nM; in series [1], 6250 nM.
For the compound `O=C(Nc1ccc2[nH]ncc2c1)O[C@@H](c1ccc(Cl)c(Cl)c1)[C@@H]1CCCCN1` [Ex 38b, (S)-(3,4-Dichlorophenyl)[(2S)-piperid-2-yl]methyl 1H-indazol-5-ylcarbamate], the IC50 is 1710 nM in series [2], 1790 nM in series [4] and 2400 nM in series [3].
In the case of `O=C(Nc1ccc2[nH]ncc2c1)N[C@@H](c1ccc(Cl)c(Cl)c1)[C@@H]1CCCCN1` [Ex 4, 1-{(S)-(3,4-Dichlorophenyl)[(2S)-piperid-2-yl]methyl}-3-(1H-indazol-5-yl)urea], the melting point stood at 216 °C. In series [2], this compound displayed an IC50 of 1200 nM. For the same compound, it took 680 nM to reach half-maximal inhibition in series [4] (IC50). Further, the IC50 in series [3] was determined as 2700 nM. The IC50 in series [1] amounted to 3420 nM.
On to `O=C(Nc1ccc2[nH]ncc2c1)O[C@@H](c1cc(F)cc(Cl)c1)[C@@H]1CCCCN1` [Ex 35, (S)-(3-Chloro-5-fluorophenyl)[(2S)-piperid-2-yl]methyl 1H-indazol-5-ylcarbamate], for which the IC50 in series [2] came out at 319 nM; in series [3], 1050 nM; in series [1], 3100 nM.
Turning to `CN1CCCCC1C(NC(=O)Nc1cc(F)c2[nH]ncc2c1)c1ccccc1` [Ex 21, 1-(7-Fluoro-1H-indazol-5-yl)-3-[(1-methylpiperid-2-yl)(phenyl)methyl]urea((S,2S),(R,2R))], 861 nM corresponded to half-maximal inhibition in series [2] (IC50).
Regarding `CN1CCCCC1C(OC(=O)Nc1ccc2[nH]ncc2c1)c1cc(F)cc(Cl)c1` (stereo not drawn) [Ex 36, (3-Chloro-5-fluorophenyl)(1-methylpiperid-2-yl)methyl 1H-indazol-5-ylcarbamate], the IC50 in series [2] was 2230 nM; in series [1], 10000 nM.
For `O=C(Nc1ccc2[nH]ncc2c1)N[C@@H](c1cc(F)cc(Cl)c1)[C@@H]1CCCCN1` [Ex 3, 1-{(S)-(3-Chloro-5-fluorophenyl)[(2S)-piperid-2-yl]methyl}-3-(1H-indazol-5-yl)urea], the IC50 in series [2] was determined as 280 nM; in series [4], 630 nM; in series [3], 1100 nM; in series [1], 10000 nM.
Regarding `O=C(Nc1ccc2[nH]ncc2c1)OC(c1cc(Cl)cc(Cl)c1)C1CCCCN1` [Ex 34, (3,5-Dichlorophenyl)[piperid-2-yl]methyl 1H-indazol-5-ylcarbamate((S,2S),(R,2R))], the half-inhibitory concentration (IC50) in series [1] came to 2910 nM.
For `CN1CCCCC1C(NC(=O)Nc1ccc2[nH]nc(C#Cc3cccnc3)c2c1)c1ccccc1` [Ex 25, 1-[(1-Methylpiperid-2-yl)(phenyl)methyl]-3-[3-(pyrid-3-ylethynyl)-1H-indazol-5-yl]urea((S,2S),(R,2R))], the IC50 in series [2] came to 611 nM; in series [4], 288 nM; in series [3], 1290 nM.

As usually defined, the IC50 is the concentration at which inhibition is half-maximal. Low values mean higher potency, high ones lower potency. By melting point is commonly meant the temperature, or range, at which the solid turns liquid.
